Data taken from patent publication US10328163B2, “Compounds binding to neuropathological aggregates” (Technische Universität München, priority 2014, dated 2019).
“Also recorded” adds a separate entry of the source. Read-outs that look alike come from different tables or passages of the source. Blank lines part the entries; values can stand above or below the compound they belong to.

How the values were obtained:
[1] = test system: Aβ1-40, Aβ1-42, τ, α-Syn aggregates; assay: In vitro selectivity / binding profile across aggregates (potential use: targeting of); details: for Potential Use: Targeting of (in vitro selectivity): Table 2
Experimental: (§1) Saturation and competition binding assays of compounds in this invention towards synthetic amyloid peptides, human tau-441 recombinant and human α-synuclein recombinant aggregate (fibrils) were performed similar to previously reported assays (Manook et al. 2012 and Yousefi et al. 2011) and adapted to the change of peptides and label. Aggregates sample was deployed on 96-well cell culture plates (Greiner Bio-One, Germany) to a final reaction volume of […] per well using 8-channel electronic pipettes (Mettler Toledo, Germany) giving 12-24 octuples of data points per sample. Bound and free fractions were separated by vacuum filtration through polyethyleneimine-pretreated GF/B glass filtermats using a semi-automated Harvester 96 Mach II M (Tomtec, USA). Filters were cut and retained radioactivity determined using an automatic NaI(TI) well-type γ-detector (Wallac 1480-011 Automatic Gamma Counter, PerkinElmer, USA). Data were processed and analyzed using GraphPad Prism 6.0 (GraphPad Software, USA).

[2] = biological target: human α-synuclein recombinant aggregate (fibrils) (Homo sapiens, UniProt P37840); assay: Saturation and competition binding assay on α-synuclein aggregates (fibrils); details: read-out: Affinity Ki, α-syn
Experimental: as §1

Aβ1-42 = Aβ1-42 (Homo sapiens, UniProt P05067); assay: Competition binding assay vs [^3H]PiB on synthetic amyloid peptide aggregates (Aβ1-42); details: for inhibition at 0.1 µM: 100 nM; for Ki: read-out: Affinity Ki, Aβ1-42
Sequence of Aβ1-42 (P05067 672-713): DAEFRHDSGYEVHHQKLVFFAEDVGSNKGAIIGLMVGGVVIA
Experimental: as §1

[3] = biological target: human tau-441 recombinant aggregate (fibrils) (Homo sapiens, UniProt P10636); assay: Saturation and competition binding assay on tau aggregates (fibrils)
Sequence of human tau-441 recombinant aggregate (fibrils) (P10636 1-441 isoform P10636-8): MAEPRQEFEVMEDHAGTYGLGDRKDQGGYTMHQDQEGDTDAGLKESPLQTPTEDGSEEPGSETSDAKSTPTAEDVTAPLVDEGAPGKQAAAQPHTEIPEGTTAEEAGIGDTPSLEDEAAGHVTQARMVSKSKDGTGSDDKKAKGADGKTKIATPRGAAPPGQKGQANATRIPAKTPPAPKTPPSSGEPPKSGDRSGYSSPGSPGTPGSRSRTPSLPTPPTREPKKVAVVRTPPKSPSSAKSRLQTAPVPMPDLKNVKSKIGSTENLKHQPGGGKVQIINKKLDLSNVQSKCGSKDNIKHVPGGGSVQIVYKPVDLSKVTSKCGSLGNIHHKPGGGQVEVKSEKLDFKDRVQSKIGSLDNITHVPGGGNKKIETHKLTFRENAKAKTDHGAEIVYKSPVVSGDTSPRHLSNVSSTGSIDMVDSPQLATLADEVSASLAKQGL
Experimental: as §1

Aβ1-40 = Aβ1-40 (Homo sapiens, UniProt P05067); assay: Competition binding assay vs [^3H]PiB on synthetic amyloid peptide aggregates (Aβ1-40); details: for inhibition at 0.1 µM: 100 nM; for Ki: read-out: Affinity Ki, Aβ1-40
Sequence of Aβ1-40 (P05067 672-711): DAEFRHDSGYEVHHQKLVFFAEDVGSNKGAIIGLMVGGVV
Experimental: as §1

β-amyloids = assay: In vitro staining of APP/PS1 tg mouse brain; assay type: binding; details: 24 month old, 1% solution of compound
Aβ and NFT = assay: Ex vivo validation on APP/PS1-tau triple transgenic mouse brain, cross-validated with thioflavin S and AT8; assay type: in vivo
[4] = biological target: T1, Aβ1-40, Aβ1-42, τ, α-Syn aggregates; assay: In vitro selectivity / binding profile across aggregates (potential use: targeting of); details: span over all aggregate types, summary of Table 1; read-out: in vitro affinity (Ki) to β-amyloids, NFT τ and synuclein aggregates
T1 construct: other: span over all aggregate types, text summar
Experimental: as §1

log P (octanol/PBS) = assay type: physicochemical; details: Table 2
From the text: Lipophilicity of CNS tracers plays an important role on blood brain barrier (BBB) and neuronal cells uptake. Therefore a library of ^18F-bithiazoles with high binding affinity towards Aβ1-40, Aβ1-42 τ, α-Syn were synthesized and log P (octanol/PBS) of these compounds measured (Table 2). The log P values were between 1.1-3.2.

[5] = Table 1, read-out: Affinity Ki, T
[6] = Table 3, read-out: Affinity Ki, τ

Potential Use: Targeting of ([1]; Table 1): Aβ
Ki ([2]; Table 1): > 1000 nM
inhibition at 0.1 µM (Aβ1-42; Table 1): 88 ± 1%
Ki (Aβ1-42; Table 1): 6 nM
Ki [3, 5]: > 1000 nM
inhibition at 0.1 µM (Aβ1-40; Table 1): 94%
Ki (Aβ1-40; Table 1): 4 nM
Structure (SMILES): CN(C)c1ccc(-c2csc(-c3nc(-c4ccc(O)cc4)cs3)n2)cc1 [Compound 1]

Potential Use: Targeting of ([1]; Table 1): Aβ, α-syn aggregates low binding site
Ki ([2]; Table 1): 328 nM
inhibition at 0.1 µM (Aβ1-42; Table 1): 45 ± 1%
Ki (Aβ1-42; Table 1): 380 nM
Ki [3, 5]: > 1000 nM
inhibition at 0.1 µM (Aβ1-40; Table 1): 11%
Structure (SMILES): CCCCOc1ccc(-c2csc(-c3nc(-c4ccc(OC)c(F)c4)cs3)n2)cc1 [Compound 5]

Potential Use: Targeting of ([1]; Table 1): α-syn aggregates low binding site
Ki ([2]; Table 1): 371 nM
inhibition at 0.1 µM (Aβ1-42; Table 1): 30 ± 1%
Ki [3, 5]: > 1000 nM
inhibition at 0.1 µM (Aβ1-40; Table 1): 22 ± 1%
Structure (SMILES): CCOc1ccc(-c2csc(-c3nc(-c4ccc(OC)cc4)cs3)n2)cc1 [Compound 6]

Potential Use: Targeting of (in vitro selectivity) [1]: Aβ
logP (log P (octanol/PBS)): 3.2
Structure (SMILES): CN(C)c1ccc(-c2csc(-c3nc(-c4ccc(OCF)cc4)cs3)n2)cc1 [Compound 7]

Potential Use: Targeting of (in vitro selectivity) [1]: α-syn
logP (log P (octanol/PBS)): 2.6
Structure (SMILES): FCCOc1ccc(-c2csc(-c3nc(-c4ccc5c(c4)OCO5)cs3)n2)cc1 [Compound 10]

Potential Use: Targeting of (in vitro selectivity) [1]: α-syn
logP (log P (octanol/PBS)): 2.5
Structure (SMILES): FCCOCCOc1ccc(-c2csc(-c3nc(-c4ccc5c(c4)OCO5)cs3)n2)cc1 [Compound 11]

Potential Use: Targeting of (in vitro selectivity) [1]: Aβ
logP (log P (octanol/PBS)): 2
Structure (SMILES): Nc1ccc(-c2csc(-c3nc(-c4ccc(NCCOCCOCCF)cc4)cs3)n2)cc1 [Compound 12]

Potential Use: Targeting of (in vitro selectivity) [1]: Aβ
logP (log P (octanol/PBS)): 2.6
Structure (SMILES): CN(C)c1ccc(-c2csc(-c3nc(-c4ccc(OCCOCCF)cc4)cs3)n2)cc1 [Compound 13]

Potential Use: Targeting of (in vitro selectivity) [1]: The low binding site of Aβ
logP (log P (octanol/PBS)): 1.9
Structure (SMILES): Oc1ccc(-c2csc(-c3nc(-c4ccc(OCCOCCF)cc4)cs3)n2)cc1 [Compound 14]

Potential Use: Targeting of (in vitro selectivity) [1]: PAN
logP (log P (octanol/PBS)): 1.1
Structure (SMILES): Oc1ccc(-c2csc(-c3nc(-c4ccc(OCCOCCF)c(O)c4)cs3)n2)cc1O [Compound 16]

Potential Use: Targeting of (in vitro selectivity) [1]: The low binding site of Aβ
logP (log P (octanol/PBS)): 1.8
Structure (SMILES): Oc1ccc(-c2csc(-c3nc(-c4ccc(OCCOCCOCCF)cc4)cs3)n2)cc1 [Compound 17]

Potential Use: Targeting of (in vitro selectivity) [1]: α-syn
logP (log P (octanol/PBS)): 2.3
Structure (SMILES): FCCOCCOCCOc1ccc(-c2csc(-c3nc(-c4ccc5c(c4)OCO5)cs3)n2)cc1 [Compound 18]

Potential Use: Targeting of (in vitro selectivity) [1]: Aβ
logP (log P (octanol/PBS)): 2.4
Structure (SMILES): CN(C)c1ccc(-c2csc(-c3nc(-c4ccc(NCCOCCOCCF)cc4)cs3)n2)cc1 [Compound 19]

The next lines start with the compound.

Structure (SMILES): COc1ccc(-c2csc(-c3nc(-c4ccc5c(c4)OCO5)cs3)n2)cc1O [Compound 2]
in vitro staining of brain (β-amyloids): specific binding to β-amyloids; also recorded: targets Aβ in the mouse model
ex vivo brain staining, targets labelled (Aβ and NFT; APP/PS1-tau triple transgenic mouse, 24 month old, 45 min p.i., 0.6 mg in DMSO, cortical (FIG. 3) and hippocampus (FIG. 4) region): targets Aβ and NFT in the mouse model
specificity of binding, ex vivo and in vitro validation (Aβ and NFT; APP/PS1 and APP/PS1-tau triple tg mouse model of AD brain): specific binding of compound 2 to Aβ and NFT
Ki [4]: 7 to 12 nM
Potential Use: Targeting of ([1]; Table 1): Aβ, α-syn, τ- aggregates (PAN- ligand)
Ki ([2]; Table 1): 9 nM
inhibition at 0.1 µM (Aβ1-42; Table 1): 86 ± 1%
Ki (Aβ1-42; Table 1): 7 nM
Ki [3, 5]: 12 nM
inhibition at 0.1 µM (Aβ1-40; Table 1): 81 ± 2%
Ki (Aβ1-40; Table 1): 10 nM

Structure (SMILES): COc1ccc(-c2csc(-c3nc(-c4ccc5c(c4)OCO5)cs3)n2)cc1F [Compound 3]
Ki ([2]; Table 1): 3 nM
inhibition at 0.1 µM (Aβ1-42; Table 1): 45 ± 2%
Ki (Aβ1-42; Table 1): 382 nM
Ki [3, 5]: > 1000 nM
inhibition at 0.1 µM (Aβ1-40; Table 1): 22 ± 1%

Structure (SMILES): CCOc1ccc(-c2csc(-c3nc(-c4ccc5c(c4)OCO5)cs3)n2)cc1 [Compound 4]
Ki ([2]; Table 1): 10 nM
inhibition at 0.1 µM (Aβ1-42; Table 1): 45 ± 2%
Ki (Aβ1-42; Table 1): 386 nM
Ki [3, 5]: 558 nM
inhibition at 0.1 µM (Aβ1-40; Table 1): 11 ± 2%

Structure (SMILES): Oc1cc(-c2csc(-c3nc(-c4ccc5c(c4)OCO5)cs3)n2)ccc1OCCF [Compound 8]
Potential Use: Targeting of (in vitro selectivity) [1]: PAN
logP (log P (octanol/PBS)): 2.1

Structure (SMILES): Oc1cc(-c2csc(-c3nc(-c4ccc5c(c4)OCO5)cs3)n2)ccc1OCCOCCF [Compound 9]
Potential Use: Targeting of (in vitro selectivity) [1]: PAN
logP (log P (octanol/PBS)): 1.9

Structure (SMILES): FCOc1ccc(-c2csc(-c3nc(-c4ccc5c(c4)OCO5)cs3)n2)cc1 [Compound 15]
Potential Use: Targeting of (in vitro selectivity) [1]: α-syn
logP (log P (octanol/PBS)): 2.6

Structure (SMILES): CN(C)c1ccc(-c2csc(-c3nc(-c4ccc(O)nc4)cs3)n2)cc1 [Compound 20]
Potential Use: Targeting of (in vitro selectivity) [1]: Aβ
Potential Use: Targeting of ([1]; Table 3): Aβ
Ki ([2]; Table 3): > 1000 nM
inhibition at 0.1 µM (Aβ1-42; Table 3): 89 ± 1%
Ki (Aβ1-42; Table 3): 6 nM
Ki [3, 6]: > 1000 nM
inhibition at 0.1 µM (Aβ1-40; Table 3): 90%
Ki (Aβ1-40; Table 3): 5 nM
logP (log P (octanol/PBS)): 1.9

Structure (SMILES): CN(C)c1ccc(-c2csc(-c3nc(-c4ccc(F)nc4)cs3)n2)cc1 [Compound 21]
Potential Use: Targeting of (in vitro selectivity) [1]: Aβ
Potential Use: Targeting of ([1]; Table 3): Aβ
Ki ([2]; Table 3): > 1000 nM
inhibition at 0.1 µM (Aβ1-42; Table 3): 88 ± 1%
Ki (Aβ1-42; Table 3): 6 nM
Ki [3, 6]: > 1000 nM
inhibition at 0.1 µM (Aβ1-40; Table 3): 89 ± 2%
Ki (Aβ1-40; Table 3): 6 nM
logP (log P (octanol/PBS)): 2.1

Structure (SMILES): Fc1ccc(-c2cc(-c3csc(-c4nc(-c5ccc6c(c5)OCO6)cs4)n3)on2)cc1 [Compound 22]
Potential Use: Targeting of (in vitro selectivity) [1]: α-syn
Ki ([2]; Table 3): 6 nM
inhibition at 0.1 µM (Aβ1-42; Table 3): 35 ± 2%
Ki (Aβ1-42; Table 3): 492 nM
Ki [3, 6]: > 1000 nM
inhibition at 0.1 µM (Aβ1-40; Table 3): 20 ± 1%
Ki (Aβ1-40; Table 3): > 500 nM
logP (log P (octanol/PBS)): 3.2

Structure (SMILES): COc1sc(-c2csc(-c3nc(-c4ccc5c(c4)OCO5)cs3)n2)cc1F [Compound 23]
Potential Use: Targeting of (in vitro selectivity) [1]: PAN
Potential Use: Targeting of ([1]; Table 3): PAN
Ki ([2]; Table 3): 7 nM
inhibition at 0.1 µM (Aβ1-42; Table 3): 86 ± 1%
Ki (Aβ1-42; Table 3): 10 nM
Ki [3, 6]: 10 nM
inhibition at 0.1 µM (Aβ1-40; Table 3): 87 ± 2%
Ki (Aβ1-40; Table 3): 9 nM
logP (log P (octanol/PBS)): 2.9
